{"source": "patent US5665718A", "about": "“Imidazodiazepines” (Hoffmann-La Roche Inc., priority 1994, dated 1997)", "key": {"[1]": {"test": "Rotating rod test (sedative/muscle relaxant properties), i.v.", "type": "in vivo", "conditions": "Mus musculus, iv, mice", "experimental": "The sedative/muscle relaxant properties of the compounds of formula I in accordance with the invention can be determined, for example, in the rotating rod test. Mice weighing 19-21 g are used for this test. They have free access to feed and drinking water up to 1 hour before the beginning of the test. They are brought into the test laboratory at least 30 minutes before the test. In the rotating rod test the animals are placed on a horizontally arranged, smooth metal rod having a diameter of 3 cm, which is rotated at 2 revolutions per minute. Initially, the animals are given the opportunity of familiarizing themselves with the test situation for 30 seconds. Subsequently, those animals which succeed in remaining on the rod for at least 1 minute are selected. These animals are then given the test preparations intravenously in different dosages. At various points in time it is then determined whether the animals are able to remain on the rod for a minimum period (minimum period: 10 seconds; from 5 minutes after administration: 1 minute.). That dosages at which 50% of the animals are capable of remaining on the rod (ED 50) is determined."}, "[2]": {"target": "central benzodiazepine receptors", "test": "Affinity to central benzodiazepine receptors: inhibition of binding of tritiated flumazenil in rat cortex", "conditions": "in vitro", "experimental": "The affinity of compounds of general formula I to the central benzodiazepine receptors was established in vitro according to the methods described in Nature 294, 763-765 (1981) and J. Neurochemistry 37, 714-722 (1981). According to these methods, the inhibition of the binding of tritiated flumazenil to the specific benzodiazepine receptors in the cortex of rats by the respective test substances is determined. The IC50 (\"50% inhibiting concentration\") denotes that concentration of the respective test substance which brings about a 50 per cent inhibition of the specific binding of tritiated flumazenil to the specific benzodiazepine receptors in the cortex of rats."}, "[3]": {"conditions": "15 s, 15 sec after administration, read-out: Rotating rod test, ED50, 15 sec after administration"}, "[4]": {"conditions": "0.5 min, 30 sec after administration, read-out: Rotating rod test, ED50, 30 sec after administration"}, "[5]": {"conditions": "1 min, 60 sec after administration, read-out: Rotating rod test, ED50, 60 sec after administration"}, "[6]": {"conditions": "2 min, 2 min after administration, read-out: Rotating rod test, ED50, 2 min after administration"}, "[7]": {"conditions": "5 min, 5 min after administration, read-out: Rotating rod test, ED50, 5 min after administration"}, "[8]": {"conditions": "0.25 h, 15 min after administration, read-out: Rotating rod test, ED50, 15 min after administration"}, "[9]": {"conditions": "0.5 h, 30 min after administration, read-out: Rotating rod test, ED50, 30 min after administration"}, "[10]": {"conditions": "1 h, 60 min after administration, read-out: Rotating rod test, ED50, 60 min after administration"}}, "note": "Where two headings read alike, the source gives them in different places.", "data": [{"smiles": "O=C1c2c(Cl)cccc2-n2cnc(-c3noc(CN4CCCCC4)n3)c2[C@@H]2CCN12", "note": "[I, (S)-8-chloro-1-[5-(piperidin-1-yl)methyl-1,2,4-oxadiazol-3-yl]-12,12a-dihydro-9H,11H-azeto[2,1-c]imidazo[1,5-a][1,4]benzodiazepin-9-one]", "values": [{"measurement": "ED50", "setting": "[1]; [3]", "result": 0.1, "unit": "mg/kg"}, {"measurement": "ED50", "setting": "[1]; [4]", "result": 0.7, "unit": "mg/kg"}, {"measurement": "ED50", "setting": "[1]; [5]", "result": 0.7, "unit": "mg/kg"}, {"measurement": "ED50", "setting": "[1]; [6]", "result": 1, "unit": "mg/kg"}, {"measurement": "ED50", "setting": "[1]; [7]", "result": 1.1, "unit": "mg/kg"}, {"measurement": "ED50", "setting": "[1]; [8]", "result": 3.1, "unit": "mg/kg"}, {"measurement": "ED50", "setting": "[1]; [9]", "result": "≥ 10", "unit": "mg/kg"}, {"measurement": "ED50", "setting": "[1]; [10]", "result": "> 10", "unit": "mg/kg"}, {"measurement": "IC50", "setting": "[2]", "result": 4.4, "unit": "nM"}]}, {"smiles": "CCCN(CCC)Cc1nc(-c2ncn3c2CN(C)C(=O)c2c(F)cccc2-3)no1", "note": "[J, 7-fluoro-5-methyl-3-(5-dipropylaminomethyl-1,2,4-oxadiazol-3-yl)-5,6-dihydro-4H-imidazo[1,5-a][1,4]benzodiazepin-6-one]", "values": [{"measurement": "ED50", "setting": "[1]; [3]", "result": 0.1, "unit": "mg/kg"}, {"measurement": "ED50", "setting": "[1]; [4]", "result": 0.2, "unit": "mg/kg"}, {"measurement": "ED50", "setting": "[1]; [5]", "result": 0.3, "unit": "mg/kg"}, {"measurement": "ED50", "setting": "[1]; [6]", "result": 0.4, "unit": "mg/kg"}, {"measurement": "ED50", "setting": "[1]; [7]", "result": 1.1, "unit": "mg/kg"}, {"measurement": "ED50", "setting": "[1]; [8]", "result": "> 10", "unit": "mg/kg"}, {"measurement": "ED50", "setting": "[1]; [9]", "result": "> 10", "unit": "mg/kg"}, {"measurement": "ED50", "setting": "[1]; [10]", "result": "> 10", "unit": "mg/kg"}, {"measurement": "IC50", "setting": "[2]", "result": 2.3, "unit": "nM"}]}, {"smiles": "CCN(CC)Cc1nc(-c2ncn3c2CN(C)C(=O)c2c(Cl)cccc2-3)no1", "note": "[K, 7-chloro-3-(5-diethylaminomethyl-1,2,4-oxadiazol-3-yl)-5-methyl-5,6-dihydro-4H-imidazo[1,5-a][1,4]benzodiazepin-6-one]", "values": [{"measurement": "ED50", "setting": "[1]; [3]", "result": 0.1, "unit": "mg/kg"}, {"measurement": "ED50", "setting": "[1]; [4]", "result": 0.3, "unit": "mg/kg"}, {"measurement": "ED50", "setting": "[1]; [5]", "result": 0.3, "unit": "mg/kg"}, {"measurement": "ED50", "setting": "[1]; [6]", "result": 0.6, "unit": "mg/kg"}, {"measurement": "ED50", "setting": "[1]; [7]", "result": 2, "unit": "mg/kg"}, {"measurement": "ED50", "setting": "[1]; [8]", "result": "≥ 10", "unit": "mg/kg"}, {"measurement": "ED50", "setting": "[1]; [9]", "result": "≥ 10", "unit": "mg/kg"}, {"measurement": "ED50", "setting": "[1]; [10]", "result": "≥ 10", "unit": "mg/kg"}, {"measurement": "IC50", "setting": "[2]", "result": 1.4, "unit": "nM"}]}, {"smiles": "CCCN(CCC)Cc1nnc(-c2ncn3c2CN(C)C(=O)c2c(Cl)cccc2-3)o1", "note": "[L, 7-chloro-3-(5-dipropylaminomethyl-1,3,4-oxadiazol-2-yl)-5-methyl-5,6-dihydro-4H-imidazo[1,5-a][1,4]benzodiazepin-6-one]", "values": [{"measurement": "ED50", "setting": "[1]; [3]", "result": 0.3, "unit": "mg/kg"}, {"measurement": "ED50", "setting": "[1]; [4]", "result": 0.4, "unit": "mg/kg"}, {"measurement": "ED50", "setting": "[1]; [5]", "result": 0.6, "unit": "mg/kg"}, {"measurement": "ED50", "setting": "[1]; [6]", "result": 1.5, "unit": "mg/kg"}, {"measurement": "ED50", "setting": "[1]; [7]", "result": 5, "unit": "mg/kg"}, {"measurement": "ED50", "setting": "[1]; [8]", "result": "> 10", "unit": "mg/kg"}, {"measurement": "ED50", "setting": "[1]; [9]", "result": "> 10", "unit": "mg/kg"}, {"measurement": "ED50", "setting": "[1]; [10]", "result": "> 10", "unit": "mg/kg"}, {"measurement": "IC50", "setting": "[2]", "result": 4.5, "unit": "nM"}]}, {"smiles": "CCN(CC)Cc1nc(-c2ncn3c2[C@@H]2CCN2C(=O)c2sccc2-3)no1", "note": "[M, (S)-1-(5-diethylaminomethyl-1,2,4-oxadiazol-3-yl)-11,11a-dihydro-8H,10H-azeto[1,2-a]imidazo[5,1-c]thieno[3,2-e][1,4]diazepin-8-one]", "values": [{"measurement": "ED50", "setting": "[1]; [3]", "result": 0.2, "unit": "mg/kg"}, {"measurement": "ED50", "setting": "[1]; [4]", "result": 0.3, "unit": "mg/kg"}, {"measurement": "ED50", "setting": "[1]; [5]", "result": 0.3, "unit": "mg/kg"}, {"measurement": "ED50", "setting": "[1]; [6]", "result": 1.1, "unit": "mg/kg"}, {"measurement": "ED50", "setting": "[1]; [7]", "result": 2.1, "unit": "mg/kg"}, {"measurement": "ED50", "setting": "[1]; [8]", "result": "> 10", "unit": "mg/kg"}, {"measurement": "ED50", "setting": "[1]; [9]", "result": "> 10", "unit": "mg/kg"}, {"measurement": "ED50", "setting": "[1]; [10]", "result": "> 10", "unit": "mg/kg"}, {"measurement": "IC50", "setting": "[2]", "result": 6.5, "unit": "nM"}]}, {"smiles": "CCCCN(CCCC)Cc1nnc(-c2ncn3c2[C@@H]2CCN2C(=O)c2sccc2-3)o1", "note": "[N, (S)-1-(5-dibutylaminomethyl-1,3,4-oxadiazol-2-yl)-11,11a-dihydro-8H,10H-azeto[1,2-a]imidazo[5,1-c]thieno[3,2-e][1,4]diazepin-8-one]", "values": [{"measurement": "ED50", "setting": "[1]; [3]", "result": 0.3, "unit": "mg/kg"}, {"measurement": "ED50", "setting": "[1]; [4]", "result": 0.3, "unit": "mg/kg"}, {"measurement": "ED50", "setting": "[1]; [5]", "result": 0.3, "unit": "mg/kg"}, {"measurement": "ED50", "setting": "[1]; [6]", "result": 0.6, "unit": "mg/kg"}, {"measurement": "ED50", "setting": "[1]; [7]", "result": 2.4, "unit": "mg/kg"}, {"measurement": "ED50", "setting": "[1]; [8]", "result": "> 10", "unit": "mg/kg"}, {"measurement": "ED50", "setting": "[1]; [9]", "result": "> 10", "unit": "mg/kg"}, {"measurement": "ED50", "setting": "[1]; [10]", "result": "> 10", "unit": "mg/kg"}, {"measurement": "IC50", "setting": "[2]", "result": 4.8, "unit": "nM"}]}, {"smiles": "CC(C)N(Cc1nc(-c2ncn3c2CN(C)C(=O)c2ccccc2-3)no1)C(C)C", "note": "[O, 3-(5-diisopropylaminomethyl-1,2,4-oxadiazol-3-yl)-5-methyl-5,6-dihydro-4H-imidazo[1,5-a][1,4]benzodiazepin-6-one]", "values": [{"measurement": "ED50", "setting": "[1]; [3]", "result": 0.3, "unit": "mg/kg"}, {"measurement": "ED50", "setting": "[1]; [4]", "result": 0.5, "unit": "mg/kg"}, {"measurement": "ED50", "setting": "[1]; [5]", "result": 0.7, "unit": "mg/kg"}, {"measurement": "ED50", "setting": "[1]; [6]", "result": 1, "unit": "mg/kg"}, {"measurement": "ED50", "setting": "[1]; [7]", "result": 3, "unit": "mg/kg"}, {"measurement": "ED50", "setting": "[1]; [8]", "result": "> 10", "unit": "mg/kg"}, {"measurement": "ED50", "setting": "[1]; [9]", "result": "> 10", "unit": "mg/kg"}, {"measurement": "ED50", "setting": "[1]; [10]", "result": "> 10", "unit": "mg/kg"}, {"measurement": "IC50", "setting": "[2]", "result": 6.4, "unit": "nM"}]}, {"smiles": "CC(C)N(Cc1nc(-c2ncn3c2CN(C)C(=O)c2cc(F)ccc2-3)no1)C(C)C", "note": "[P, 3-(5-diisopropylaminomethyl-1,2,4-oxadiazol-3-yl)-8-fluoro-5-methyl-5,6-dihydro-4H-imidazo[1,5-a][1,4]benzodiazepin-6-one]", "values": [{"measurement": "ED50", "setting": "[1]; [3]", "result": 0.1, "unit": "mg/kg"}, {"measurement": "ED50", "setting": "[1]; [4]", "result": 0.2, "unit": "mg/kg"}, {"measurement": "ED50", "setting": "[1]; [5]", "result": 0.3, "unit": "mg/kg"}, {"measurement": "ED50", "setting": "[1]; [6]", "result": 0.7, "unit": "mg/kg"}, {"measurement": "ED50", "setting": "[1]; [7]", "result": 1, "unit": "mg/kg"}, {"measurement": "ED50", "setting": "[1]; [8]", "result": 4.3, "unit": "mg/kg"}, {"measurement": "ED50", "setting": "[1]; [9]", "result": "≥ 10", "unit": "mg/kg"}, {"measurement": "ED50", "setting": "[1]; [10]", "result": "> 10", "unit": "mg/kg"}, {"measurement": "IC50", "setting": "[2]", "result": 4.1, "unit": "nM"}]}]}
